“Also recorded” adds a separate entry of the source. Like-named read-outs stand apart in the source and are kept apart here. Numbered stars: 1 amine (or outer) side, 2 acyl side, 3 side chain; on linkers, the order of the positions; unused ones are H or OH. Bridge positions count the residues as written; N and C are the ends. Square brackets hold non-standard residues; d marks the D form. Peptide text beside a SMILES is read from it. I, II: the chains in the order shown. Actinocin(9to1) = Cc1c2oc3c(C)ccc(C(=O)[*:1])c3nc-2c(C(=O)[*:2])c(N)c1=O; NMeV = CN[C@H](C(=O)O)C(C)C; Sar = CNCC(=O)O
Tests used:
[1] = test system: tumor cell lines or primary cultures of rat neuronal cells; details: continued exposure; cited from earlier work
MCF-7 cells [2] = test system: MCF-7 cells
Experimental: (§1) Human breast tumor cell lines (MCF-7, T47D, SKBr3, and MCF-7/Adr^−) were cultured in DMEM containing 3.7 g/liter Na2HCO3, fetal bovine serum (10%), and insulin (10 mg/liter). For cytotoxicity assays, cells were transferred to DMEM+Ham's nutrient mixture F-12 (without phenol red), with 1.2 g/liter Na2HCO3. Cells were seeded at 100,000 cells/well. Human SK-N-SH neuroblastoma and DU-145 prostate carcinoma cells were cultured in DMEM, supplemented with fetal bovine serum (10%).
(§2) Cell death was assessed by release of lactate dehydrogenase (LDH) into the culture medium using the CytoTox 96 kit from Promega (Madison, Wis.). The method used was as specified by manufacturer with minor modifications. Cells were plated and cultured in 24-well plates for 1 to 2 days prior to the experiment. Cells were treated in the plates under the specified drug conditions. Following treatment, the medium was transferred to centrifuge tubes and centrifuged to remove cell debris. Supernatant (50 μl) was transferred to a 96-well plate, to which was added substrate mix in assay buffer, followed by stop solution after a 30 min incubation. Formation of formazan was monitored at 490 nm in a plate reader. Values are expressed relative to total lysis controls (Triton X-100 was used to determine value for 100% cell kill) and no drug-controls. Doxorubicin and caspase inhibitors (Z-VAD-FMK, Y-VAD-CHO, DEVD-CHO) were obtained from Calbiochem (San Diego, Calif.) and actinomycin-D from Sigma (St. Louis, Mo.).

MCF-7/Adr^− cells = assay: Cytotoxicity assay, LDH release into culture medium
Experimental: as §1, §2

[3] = up to 100 mg orally every four hours, 30 mg IV and 60 mg IM; cited from earlier work
sigma-2 receptor = details: cited from earlier work; for sigma receptor subtype selectivity: sigma-2 vs sigma-1
[4] = test system: SK-N-SH neuroblastoma cells; details: cited from earlier work
SKBr3 cells = assay: Cytotoxicity assay, LDH release into culture medium; format: cell-based, human; details: various concentrations, FIG. 3A
Experimental: (§3) Cells were seeded at 100,000 cells/well.

T47D cells [5] = assay: as above; format: cell-based, human; details: various concentrations, FIG. 3B
Experimental: as §3

breast tumor cell lines = assay: Cytotoxicity (LDH release) across breast tumor cell lines; format: cell-based, human; details: for effect of p53 status on cytotoxic potency: mutant p53 (MCF-7/Adr^−, SKBr3, T47D) vs wild-type p53 MCF-7, FIG. 4B; for relative cytotoxic potency: FIG. 3A, 3B, 4B
Experimental: as §3

MCF-7 cells [6] = assay: Detection of apoptosis by the TUNEL method; format: cell-based, human; details: 100 μM, 48 hours; for TUNEL assay result: FIG. 2
Experimental: as §3
(§4) DNA fragmentation occurring during apoptosis can be detected by incorporating fluorescein-12-dUTP at the 3′-OH DNA ends using the enzyme, terminal deoxynucleotidyl transferase (TdT). TUNEL (TdT-mediated dUTP Nick-End Labeling) was performed using the Apoptosis Detection System, Fluorescein Kit (Promega, Madison, Wis.) according to the manufacturer's specification. After treatment with sigma ligands at the concentrations and times specified, cells were fixed with 4% formaldehyde, permeabilized with Triton X-100, and incubated with fluorescein-12-dUTP and terminal deoxynucleotidyl transferase and then with propidium iodide. Propidium iodide stains the DNA in both apoptotic and non-apoptotic cells with orange-red color. Fluorescein produces yellow-green fluorescence, indicating fragmented DNA within the nucleus of apoptotic cells. Filters used: excitation 450-490 nm, barrier 520 nm.

T47D cells [7] = format: cell-based, human
Experimental: as §3, §4

MCF-7 cells [8] = assay: Detection of apoptosis by Annexin V binding; format: cell-based, human; details: drug 100 μM; Z-VAD-FMK or Y-VAD-CHO 50 μM; 48 hours; FIG. 5
Experimental: as §3
The early stages of apoptosis are characterized by translocation of phosphatidyl serine (PS) from the inner surface of the plasma membrane to the outer surface of the membrane. Externalized PS can then be detected using Annexin V, a protein with high affinity for PS. This was carried out using the ApoAlert Annexin V Apoptosis Kit (Clontech, Palo Alto, Calif.) according to the manufacturer's specifications. After incubation with sigma ligands at the concentrations and times specified, live cells (without fixing) were incubated with annexin V-FITC and propidium iodide, and were investigated using fluorescence microscopy. […] Filters used: excitation 450 nm, barrier 535 nm.

[9] = test system: breast tumor cell lines possessing p53 mutations; details: Crawford et al., 1999; cited from earlier work
SKBr3 cell lines = format: cell-based, human
Experimental: as §3, §4

12-methoxyibogamine [ibogaine]
cell morphological changes and cell death [1]: activity

CC(C)=CCN1CCC2(C)c3cc(O)ccc3CC1C2C (racemic) [pentazocine]
potentiation of doxorubicin-induced cytotoxicity (MCF-7 cells [2]; combined with doxorubicin in MCF-7 cells): Little or no potentiation
potentiation of doxorubicin-induced cytotoxicity (MCF-7/Adr^− cells; haloperidol 25 μM or pentazocine 35 μM with various concentrations of doxorubicin, FIG. 8): potentiated the cytotoxicity of doxorubicin; also recorded: potentiated the higher doses of doxorubicin
peak plasma concentrations [3]: about 160 ng/ml

CC(C)=CCN1CCC2(C)c3cc(O)ccc3CC1C2C (single isomer, unassigned; (+)) [(+)-pentazocine]
sigma-2 affinity (sigma-2 receptor): binds very weakly
cell morphological changes and cell death [1]: lack of activity

CC(C)=CCN1CCC2(C)c3cc(O)ccc3CC1C2C (single isomer, unassigned; (-)) [(−)-Pentazocine]
sigma-2 affinity (sigma-2 receptor): has sigma-2 affinity

CN(C)CCN(C)CCc1ccc(Cl)c(Cl)c1 [BD1047]
antagonist activity in the calcium assay ([4]; pH 7.2): ineffective
antagonist activity in the calcium assay ([4]; pH 8.2): effectively attenuated agonist activity

CN1CCN(CCc2ccc(Cl)c(Cl)c2)CC1 [BD1063]
antagonist activity in the calcium assay ([4]; pH 7.2): ineffective
antagonist activity in the calcium assay ([4]; pH 8.2): effectively attenuated agonist activity

CN1CC[C@]2(c3cccc(O)c3)CC(=O)/C(=C/c3ccccc3)[C@H]1C2 [CB-64D, (+)-1R,5R-E-8-benzylidene-5-(3-hydroxyphenyl)-2-methylmorphan-7-one]
cytotoxicity (LDH release, percentage of total cell kill) (SKBr3 cells): cytotoxic
cytotoxicity (LDH release, percentage of total cell kill) (T47D cells [5]): cytotoxic
potency relative to CB-184 (fold less potent) (breast tumor cell lines; intact cells): about 10 fold
effect of p53 status on cytotoxic potency (breast tumor cell lines): generally not affected by p53 status; also recorded: comparable
extent of apoptotic changes / apoptotic nuclei (TUNEL) (MCF-7 cells [6]): extensive apoptotic changes
TUNEL assay result (MCF-7 cells [6]): positive results
cells visualized displaying apoptotic nuclei (MCF-7 cells [6]; in some experiments): up to 100%
TUNEL assay result (T47D cells [7]; 100 μM, 48 hours, FIG. 2): positive results
effect of caspase inhibitors on drug-induced apoptosis (Annexin V binding) (MCF-7 cells [8]): unaffected by co-treatment with caspase inhibitors
sigma receptor subtype selectivity (sigma-2 receptor): sigma-2 subtype-selective
cell morphological changes and cell death [1]: activity
induction of apoptosis [9]: induce apoptosis

CN1CC[C@]2(c3cccc(O)c3)CC(=O)/C(=C/c3ccc(Cl)c(Cl)c3)[C@H]1C2 [CB-184, (+)-1R,5R-E-8-(3,4-dichlorobenzylidene)-5-(3-hydroxyphenyl)-2-methylmorphan-7-one]
cytotoxicity of combination with doxorubicin (MCF-7 cells [2]; CB184 1 μM + doxorubicin 10 μM, 24 and 48 hours, FIG. 7A, 7B): Clear synergistic effects
effect of DEVD-CHO on cytotoxicity (LDH release) (MCF-7 cells [2]; DEVD-CHO 50 μM, caspase 3 inhibitor, FIG. 6A, 6B): no difference
effect of caspase inhibitors on drug-induced cytotoxicity (LDH release) (MCF-7 cells [2]; DEVD-CHO or Z-VAD-FMK 50 μM, FIG. 6A-6C): not that induced by CB-184
cytotoxicity of combination with actinomycin D (MCF-7/Adr^− cells; CB184 1 μM + actinomycin D 1 μg/ml at 24 hours or 0.1 μg/ml at 48 hours, FIG. 7C, 7D): potentiated
cytotoxicity of combination with doxorubicin (MCF-7/Adr^− cells; CB184 1 μM + doxorubicin 10 μM): less pronounced
cytotoxicity (LDH release, percentage of total cell kill) (SKBr3 cells): cytotoxic
cytotoxicity (LDH release, percentage of total cell kill) (T47D cells [5]): cytotoxic
concentration below which toxicity is generally not seen in the LDH assay (breast tumor cell lines; 24 hrs): below 1 μM
relative cytotoxic potency (breast tumor cell lines; intact cells): more potent than CB-64D; also recorded: most potent sigma-2 selective agent in intact cells
relative cytotoxic potency (breast tumor cell lines; intact cells, listed as CB184): greatest potency in all cell lines tested
LDH release compared to controls (breast tumor cell lines; below 1 μM, 48 hrs): mildly increased LDH release
effect of p53 status on cytotoxic potency (breast tumor cell lines): generally not affected by p53 status; also recorded: comparable
sigma receptor subtype selectivity (sigma-2 receptor): sigma-2 subtype-selective

Cc1c2oc3c(C)ccc(C(=O)N[C@@H]4C(=O)N[C@H](C(C)C)C(=O)N5CCC[C@H]5C(=O)N(C)CC(=O)N(C)[C@@H](C(C)C)C(=O)O[C@@H]4C)c3nc-2c(C(=O)N[C@@H]2C(=O)N[C@H](C(C)C)C(=O)N3CCC[C@H]3C(=O)N(C)CC(=O)N(C)[C@@H](C(C)C)C(=O)O[C@@H]2C)c(N)c1=O [actinomycin D] (I: T[dV]P[Sar][NMeV] / II: T[dV]P[Sar][NMeV]; ester I:1-I:C, II:1-II:C; linker I:N-II:N via Actinocin(9to1))
induction of apoptosis (SKBr3 cell lines): apoptosis was induced
induction of apoptosis (T47D cells [7]): apoptosis was induced
induction of apoptosis [9]: greatly attenuated

O=P1(N(CCCl)CCCl)NCCCO1 (stereo not shown) [cyclophosphamide]
induction of apoptosis (SKBr3 cell lines): apoptosis was induced
induction of apoptosis (T47D cells [7]): apoptosis was induced

COc1cccc2c1C(=O)c1c(O)c3c(c(O)c1C2=O)C[C@@](O)(C(=O)CO)C[C@@H]3O[C@H]1C[C@H](N)[C@H](O)[C@H](C)O1 [doxorubicin]
LDH release (MCF-7 cells [2]; various concentrations, FIG. 6C): dose-dependent increase in LDH-release
TUNEL assay result (MCF-7 cells [6]): positive results
induction of apoptosis (SKBr3 cell lines): apoptosis was induced
induction of apoptosis (T47D cells [7]): apoptosis was induced
TUNEL assay result (T47D cells [7]; 100 μM, 48 hours, FIG. 2): positive results
effect of caspase inhibitors on drug-induced apoptosis (Annexin V binding) (MCF-7 cells [8]): blocked apoptosis induced by doxorubicin
induction of apoptosis [9]: greatly attenuated

O=C(CCCN1CCC(O)(c2ccc(Cl)cc2)CC1)c1ccc(F)cc1 [haloperidol]
extent of apoptotic changes / apoptotic nuclei (TUNEL) (MCF-7 cells [6]): less extensively than the more potent CB64D
TUNEL assay result (MCF-7 cells [6]): positive results
TUNEL assay result (T47D cells [7]; 100 μM, 48 hours, FIG. 2): positive results
sigma receptor subtype selectivity (sigma-2 receptor): subtype non-selective
cell morphological changes and cell death [1]: cell death

OC(CCCN1CCC(O)(c2ccc(Cl)cc2)CC1)c1ccc(F)cc1 (stereo not shown) [reduced haloperidol]
extent of apoptotic changes / apoptotic nuclei (TUNEL) (MCF-7 cells [6]): less extensively than the more potent CB64D
TUNEL assay result (MCF-7 cells [6]): positive results
TUNEL assay result (T47D cells [7]): positive results
sigma receptor subtype selectivity (sigma-2 receptor): subtype non-selective
cell morphological changes and cell death [1]: cell death

Reference: patent US20030171397A1 (priority 2003, published 2003)
